According to ChEMBL document CHEMBL4765281, “Development of a novel nitric oxide (NO) production inhibitor with potential therapeutic effect on chronic inflammation” (Eur J Med Chem, 2020):
Blank lines part the entries; values can stand above or below the compound they belong to. Active and inactive are the calls of the source. No cut-off for these calls is given here.

Legend:
Mus musculus [1] = assay: Antiinflammatory activity in DBA/1 mouse model of collagen-induced arthritis assessed as reduction in cartilage destruction at 10 mg/kg/day, po administered starting from day 30 and measured on day 63 by H and E/Safranin O staining based microscopic analysis; type: functional, organism-based; conditions: time 33.0 day
Mus musculus [2] = assay: Antiinflammatory activity in DBA/1 mouse model of collagen-induced arthritis assessed as reduction in IL-1beta mRNA expression in joint tissue at 10 mg/kg/day, po administered starting from day 30 and measured on day 63 by RT-PCR analysis; type: functional, organism-based; conditions: time 33.0 day
Rattus norvegicus [3] = assay: Antiinflammatory activity in Lewis rat model of adjuvant-induced arthritis assessed as reduction in disease symptom at 10 mg/kg/day, po administered starting from day 14; type: functional, organism-based
Rattus norvegicus [4] = assay: Antiinflammatory activity in Lewis rat model of adjuvant-induced arthritis assessed as reduction in arthritis score at 10 mg/kg/day, po administered starting from day 14; type: functional, organism-based
RAW264.7 [5] = assay: Inhibition of LPS-induced nitric oxide production in mouse RAW264.7 cells at 10 uM measured after 24 hrs by Griess reagent based assay relative to control; type: functional
Mus musculus [6] = assay: Antiinflammatory activity in DBA/1 mouse model of collagen-induced arthritis assessed as reduction in IL-6 mRNA expression in joint tissue at 10 mg/kg/day, po administered starting from day 30 and measured on day 63 by RT-PCR analysis; type: functional, organism-based; conditions: time 33.0 day
Mus musculus [7] = assay: (§1) Antiinflammatory activity in DBA/1 mouse model of collagen-induced arthritis assessed as CD4-positive cell expression in lymph node derived lymphocytes at 10 mg/kg/day, po administered starting from day 30 and measured on day 63 by APC-conjugated anti-mouse CD4 and FITC-conjugated anti-mouse CD8 staining based flow cytometry relative to control; type: functional; conditions: time 33 day
Mus musculus [8] = assay: Antiinflammatory activity in DBA/1 mouse model of collagen-induced arthritis assessed as reduction in arthritis score at 10 mg/kg/day, po administered starting from day 30; type: functional, organism-based
Mus musculus [9] = assay: Antiinflammatory activity in DBA/1 mouse model of collagen-induced arthritis assessed as reduction in paw redness at 10 mg/kg/day, po administered starting from day 30; type: functional, organism-based
Rattus norvegicus [10] = assay: Antiinflammatory activity in Lewis rat model of adjuvant-induced arthritis assessed as improvement in disease pathology at 10 mg/kg/day, po administered starting from day 14 and measured on day 28 by H and E/Safranin O staining based microscopic analysis; type: functional, organism-based; conditions: time 14.0 day
Mus musculus [11] = assay: Antiinflammatory activity in DBA/1 mouse model of collagen-induced arthritis assessed as reduction in TNFalpha mRNA expression in joint tissue at 10 mg/kg/day, po administered starting from day 30 and measured on day 63 by RT-PCR analysis; type: functional, organism-based; conditions: time 33.0 day
Mus musculus [12] = assay: as §1, with “CD8-positive” for “CD4-positive”; type: functional; conditions: time 33 day
RAW264.7 [13] = assay: Inhibition of LPS-induced iNOS expression in mouse RAW264.7 cells measured after 24 hrs by Western blot analysis; type: functional, cell-based
Mus musculus [14] = assay: as §1, with “CD4 and CD8-double positive” for “CD4-positive”; type: functional; conditions: time 33 day
Mus musculus [15] = assay: as §1, with “spleen” for “lymph node derived”; type: functional; conditions: time 33 day
RAW264.7 [16] = assay: Inhibition of LPS-induced nitric oxide production in mouse RAW264.7 cells measured after 24 hrs by Griess reagent based assay; type: functional, cell-based; conditions: RAW264.7, 24 h
RAW264.7 [17] = assay: Cytotoxicity against mouse RAW264.7 cells assessed as reduction in cell viability measured after 24 hrs by MTT assay; type: cell-based; conditions: RAW264.7, 24 h
Mus musculus [18] = assay: as §1, with “CD4 and CD8- double positive” for “CD4-positive”, “spleen” for “lymph node derived”; type: functional; conditions: time 33 day
Mus musculus [19] = assay: as §1, with “CD8-positive” for “CD4-positive”, “spleen” for “lymph node derived”; type: functional; conditions: time 33 day
Mus musculus [20] = assay: Antiinflammatory activity in DBA/1 mouse model of collagen-induced arthritis assessed as appearance of intact joint structure at 10 mg/kg/day, po administered starting from day 30 and measured on day 63 by H and E/Safranin O staining based microscopic analysis; type: functional, organism-based; conditions: time 33.0 day
RAW264.7 [21] = assay: Inhibition of LPS-induced nitric oxide production in mouse RAW264.7 cells; type: functional, cell-based

SMILES: COc1ccc(/C=C/C(=O)c2ccc(OC)cc2O)cc1
inhibition at 10 µM (RAW264.7 [5]): 70%

SMILES: COc1cc(O)c(C(=O)/C=C/c2ccc(OCCCO)cc2)c(OC)c1
inhibition at 10 µM (RAW264.7 [5]): 78.2%

SMILES: COc1cc(O)c(C(=O)/C=C/c2cc(OC)c(OC)c([N+](=O)[O-])c2)c(OC)c1
inhibition at 10 µM (RAW264.7 [5]): 30.8%

SMILES: COc1cc(O)c(C(=O)/C(F)=C/c2ccc(O)cc2)c(OC)c1
inhibition at 10 µM (RAW264.7 [5]): 70%

SMILES: COc1cc(O)c(C(=O)/C(C)=C/c2ccccc2)c(OC)c1
inhibition at 10 µM (RAW264.7 [5]): 57.5%

SMILES: COc1cc(/C=C/C(=O)c2ccc(F)cc2)cc(OC)c1OC
IC50 (RAW264.7 [21]): 0.033 µM

SMILES: COc1ccc(OC)c(/C=C(\F)C(=O)c2c(O)cc(OC)cc2OC)c1
inhibition at 10 µM (RAW264.7 [5]): 42.6%

SMILES: COc1cccc(C(=O)/C=C/c2cc(OC)c(OC)c(OC)c2)c1
IC50 (RAW264.7 [21]): 2.88 µM

SMILES: COc1ccc(/C=C/C(=O)c2ccccc2O)cc1
inhibition at 10 µM (RAW264.7 [5]): 76.7%

SMILES: COc1ccc(OC)c(/C=C/C(=O)c2c(O)cc(OC)cc2OC)c1
inhibition at 10 µM (RAW264.7 [5]): 73.7%

SMILES: CC(C)=CCc1c(O)ccc(C(=O)/C=C/c2ccc(O)cc2)c1O [ISOBAVACHALCONE]
IC50 (RAW264.7 [21]): 1.6 µM

SMILES: CC1(C)C=Cc2c(ccc(C(=O)/C=C/c3ccc(O)cc3)c2O)O1
IC50 (RAW264.7 [21]): 10.2 µM

SMILES: COc1cc(O)c(C(=O)/C=C/c2cc(OC)c(OC)c(OC)c2)c(OC)c1
inhibition at 10 µM (RAW264.7 [5]): 77.4%

SMILES: CC1(C)C=Cc2cc(C(=O)/C=C/c3ccc(O)cc3)c(O)cc2O1 [4-HYDROXYISOLONCHOCARPIN]
IC50 (RAW264.7 [21]): 2.4 µM

SMILES: COc1cc(O)c(C(=O)/C=C/c2ccc(OCCCN3CCCCC3)c(OC)c2)c(OC)c1
inhibition at 10 µM (RAW264.7 [5]): 74.8%

SMILES: COc1ccc(/C=C/C(=O)c2c(O)cc(OC)cc2OC)c(OC)c1
inhibition at 10 µM (RAW264.7 [5]): 67.6%

SMILES: COc1cccc(/C=C(\F)C(=O)c2c(O)cc(OC)cc2OC)c1
inhibition at 10 µM (RAW264.7 [5]): 58.1%

SMILES: CC(C)=CCc1cc(C(=O)/C=C/c2ccc(O)c(O)c2)c(O)cc1O [BROUSSOCHALCONE A]
IC50 (RAW264.7 [21]): 11.3 µM

SMILES: O=c1cc(-c2ccc(O)c(O)c2)oc2cc(O)cc(O)c12 [LUTEOLIN]
inhibition at 10 µM (RAW264.7 [5]): 54.6%
IC50 (RAW264.7 [16]): 9.2 µM
IC50 (RAW264.7 [17]): > 40 µM

SMILES: O=C(/C=C/c1ccccc1O)c1ccsc1
IC50 (RAW264.7 [21]): 5.75 µM

Second part, led by results:

IC50 (RAW264.7 [16]): 6.4 µM
SMILES: COc1cc(O)c(C(=O)/C=C/c2ccc(OCCCN3CCOCC3)c(OC)c2)c(OC)c1
Activity (Mus musculus [1]): Active
Activity (Mus musculus [2]): Active
Activity (Rattus norvegicus [3]): Active
Activity (Rattus norvegicus [4]): Active
inhibition at 10 µM (RAW264.7 [5]): 84%
Activity (Mus musculus [6]): Active
Activity (Mus musculus [7]): 29.3%
Activity (Mus musculus [8]): Active
Activity (Mus musculus [9]): Active
Activity (Rattus norvegicus [10]): Active
Activity (Mus musculus [11]): Active
Activity (Mus musculus [12]): 27.4%
inhibition (RAW264.7 [13]): Dose-dependent effect
Activity (Mus musculus [14]): 2.13%
Activity (Mus musculus [15]): 39.1%
IC50 (RAW264.7 [17]): > 80 µM
Activity (Mus musculus [18]): 0.527%
Activity (Mus musculus [19]): 28.7%
Activity (Mus musculus [20]): Active

IC50 (RAW264.7 [16]): 6.3 µM
SMILES: COc1cc(O)c(C(=O)/C=C/c2ccc(C)cc2)c(OC)c1
inhibition at 10 µM (RAW264.7 [5]): 82.1%
IC50 (RAW264.7 [17]): > 40 µM

IC50 (RAW264.7 [21]): 0.7 µM
SMILES: COc1ccc(OC)c(C(=O)/C=C/c2ccc(N(C)C)cc2)c1

IC50 (RAW264.7 [16]): 2.7 µM
SMILES: CCOc1cc(OC)cc(OC)c1C(=O)/C=C/c1cccc(OC)c1
inhibition at 10 µM (RAW264.7 [5]): 85.6%
IC50 (RAW264.7 [17]): 34 µM

IC50 (RAW264.7 [16]): 6.5 µM
SMILES: COc1cc(O)c(C(=O)/C=C/c2ccc(OCCCN3CCCC3)c(OC)c2)c(OC)c1
inhibition at 10 µM (RAW264.7 [5]): 83.1%
IC50 (RAW264.7 [17]): > 40 µM

IC50 (RAW264.7 [21]): 0.6 µM
SMILES: COc1cccc(OC)c1C(=O)/C=C/c1ccc(N(C)C)cc1

IC50 (RAW264.7 [16]): 3.6 µM
SMILES: COc1cccc(/C=C/C(=O)c2c(OC)cc(OC)cc2OC(C)=O)c1
inhibition at 10 µM (RAW264.7 [5]): 84.6%
IC50 (RAW264.7 [17]): 30.7 µM

IC50 (RAW264.7 [16]): 4.2 µM
SMILES: COc1cc(O)c(C(=O)/C=C/c2ccccc2)c(OC)c1 [FLAVOKAWAIN B]
inhibition at 10 µM (RAW264.7 [5]): 80.6%
IC50 (RAW264.7 [17]): 26.5 µM

IC50 (RAW264.7 [21]): 7.1 µM
SMILES: COc1ccccc1C(=O)/C=C/c1ccc(Cl)c(Cl)c1
